SMILES strings stand for the structures.

Consider one compound from PMC9604388, “Purification and Functional Characterization of a Soluble Trehalase in Lissorhoptrus oryzophilus (Coleoptera: Curculionidae)” (Insects, 2022).

In this assay the test system is T1, LoTRE1.
T1 construct: whole coding region incl. predicted signal peptide (1-25) by primers (ORF 1839 bp, 612 aa, 70833 Da); E. coli Rosetta (DE3), Ni-NTA; ~70 kDa
Nature of the assay: […],5-dinitrosalicylic acid assay of released glucose. The format is biochemical, Lissorhoptrus oryzophilus. The note with it: PBS, pH 7.0, 50 °C, 30 min; substrate 1-10 mmol/L (Km above tested range).

Turning to `OC[C@H]1O[C@H](O[C@H]2O[C@H](CO)[C@@H](O)[C@H](O)[C@H]2O)[C@H](O)[C@@H](O)[C@@H]1O` [trehalose], the Michaelis-Menten constant (Km) was 48.6 mM.

The Km is the substrate concentration at which the rate is half of its maximum.
